Experimental data as given in EP1447414B1, “Antagonist peptides of carcinoembryonic antigen (CEA)” (THE GOVERNMENT OF THE UNITED STATES OF AMERICA, as …, priority 1997, dated 2007).
No end group written: not given here.

What follows are molecules tested on CEA CTL T-Vac8 (assay: CTL cytotoxicity screening of the CAP1 analog panel, 111In release from peptide-incubated C1R-A2 cells). Conditions: peptide at 1, 0.1 and 0.01 µg/ml, E:T=1.45:1, isotope release after 4 hours.
Format: cell-based, human

| Molecule | activation of T-Vac8 cytotoxicity (lysis of peptide-incubated targets) |
| --- | --- |
| CC(C)C[C@H](NC(=O)[C@H](CC(N)=O)NC(=O)[C@H](CC(C)C)NC(=O)[C@H](CC(=O)O)NC(=O)[C@H](C)NC(=O)CNC(=O)[C@H](CO)NC(=O)[C@H](CC(C)C)NC(=O)[C@@H](N)Cc1ccc(O)cc1)C(=O)O [CAP1-6D] | activated T-Vac8 cytotoxicity and seemed to be equal to or better than CAP1 |
| CC[C@H](C)[C@H](NC(=O)[C@H](CC(N)=O)NC(=O)[C@H](C)NC(=O)CNC(=O)[C@H](CO)NC(=O)[C@H](CC(C)C)NC(=O)[C@@H](N)Cc1ccc(O)cc1)C(=O)N[C@@H](CC(N)=O)C(=O)N[C@@H](CC(C)C)C(=O)O [CAP1-7I] | appeared to be active |
| YLSGACLNL [CAP1-6C] | activated T-Vac8 cytotoxicity and seemed to be equal to or better than CAP1 |
| YLSGFNLNL [CAP1-5F] | provided stimulation, albeit at reduced levels compared to CAP1 itself |
| YLSGINLNL [CAP1-5I] | provided stimulation, albeit at reduced levels compared to CAP1 itself |
| YLSGSNLNL [CAP1-5S] | provided stimulation, albeit at reduced levels compared to CAP1 itself |
